Laboratory results as given in patent publication US8299031B2, “Human semen enhancer of viral infection peptides (SEVI) and their use” (Viro Pharmaceuticals GmbH & Co. KG, priority 2006, dated 2012).
Where two headings read alike, the source gives them in different places. Ends that are not written are not given here.

Tests used:
[1] = system: SIVagm-tan 1; type: cell-based, SIV; details: TZM-bl
[2] = system: HIV-1; test: Preincubation of virus stock with SEVI and 50-fold dilution into cell culture; type: cell-based; details: diluted 50-fold
Protocol: SEVI could bind to viral particles and increase their infectivity, or enhance the susceptibility of target cells to HIV-1 infection. To distinguish between these possibilities, we preincubated the virus stock with various concentrations of fibrilar PAP(248-286) for 5 min in a small volume and subsequently added the virus/SEVI mixture to the cell culture, thereby diluting it 50-fold. For comparison, SEVI was directly added to the cell culture and subsequently infected with the same viral dose. […] In relation to the final peptide concentration in the infected culture, viral infectivity was enhanced by 50-fold (FIG. 17A, right).
(§1) FIG. 17. SEVI interacts with the HIV-1 particle and enhances its binding to the cell. A) Interaction of SEVI with HIV-1. SEVI was either preincubated with the virus stock in a small volume and subsequently added to the cells (□) or SEVI and the HIV-1 stocks were added separately to the cells (▪). The SEVI concentrations during incubation with the virus stocks are shown in the left panel and the concentrations relating to the total cell culture in the right panels. B) SEVI enhances binding of wildtype and Env-defective viral particles to the cells. u, uninfected cells. Data represent average values±s.d. (n=3).

[3] = system: HIV-1 particles; test: Binding of viral particles to TZM-bl cells (cell-associated p24 ELISA); type: cell-based; details: 3 hs
Protocol: To further assess how SEVI might enhance HIV-1 infection we incubated TZM-bl cells for 3 hs with viral particles in the presence or absence of fibrilar PAP(248-286). Thereafter, unbound virus was removed by extensive washing and the amount of cell-associated p24 antigen was determined by ELISA. SEVI increased binding of HIV-1 to the target cells up to 8-fold in a dose-dependent manner (FIG. 17B, left).
as §1

[4] = system: HIV-1 NL4-3; test: HIV-1 infection rate of CEMX174 5.25 M7 cells (GFP UV microscopy and luciferase); type: cell-based; details: CEMX174 5.25 M7, 0.3 ng p24, 2 days
Protocol: The rate of virus infection was detected after 2 days by performing first UV microscopy (FIG. 10A) and thereafter by measuring luciferase activities of cell lysates of the same samples (FIG. 10B). […] After infection of control samples containing no peptide, 2.6% of the cells expressed GFP corresponding to luciferase activities of 44,457 RLU/s (FIG. 10). In the presence of 2 μg/ml SEVI the average infection rates were nearly doubled to 4.6% (66,327 RLU/s). At the highest concentration of 50 μg/ml more than 99% of the cells became infected by HIV-1. Median luciferase activities in those samples were 1,701,156 RLU/s, corresponding to a 38 fold increase of infection (1,701,156 RLU/s divided by 44,457 RLU/s of control cells).
FIG. 10. […] The rate of virus infection was detected after 2 days by performing UV microscopy (A) or by measuring luciferase activity of cellular lysates (B). RLU/s: relative light units per second.

[5] = system: HIV-1 NL4-3; test: HIV-1 replication in PBMC after low dose infection (p24 antigen ELISA); type: cell-based; details: 2 μg/ml SEVI
[6] = system: HIV-1 NL4-3; type: cell-based; details: for luciferase activities increased compared to control cells containing no SEVI: 50 μg/ml peptide; for effect on HIV-1 infection (luciferase activities relative to no peptide): peptides 5 mg/ml shaken 20 h 37 °C, CEMX174 5.25 M7, 30 pg p24 HIV-1 NL4-3, 20 hours
Protocol: To analyze the effect of synthesized SEVI peptides on HIV infection, samples were resuspended in FBS free DMEM to yield a stock solution of 5 mg/ml and shacked for 20 h at 37° C. at 1400 rpm (rotations per minute) resulting in a turbid solution.
All peptides indicated in FIG. 7B were dissolved and incubated under the same conditions. […] In the presence of 50 μg/ml peptide, luciferase activities were increased about 30 fold compared to those from control cells containing no SEVI (FIG. 7A).
FIG. 7. Several synthetic PAP fragments stimulate HIV-1 infection. A) Lyophilized peptides were resuspended in DMEM without FBS and incubated for 20 h at 37° C. at 1,400 rpm using a thermo mixer (Eppendorf). […] After 20 h virus infection was detected using the Luciferase assay reagent (Promega). […] B) Shown are the peptide sequences analyzed.

[7] = system: SIVcpz-tan 1; type: cell-based, SIV; details: CEMX174 5.25 M7 cells
[8] = system: SIVmac239; type: cell-based, SIV; details: TZM-bl
[9] = system: HIV-2 ROD10; type: cell-based
[10] = system: HIV-1 NL4-3 (X4) and HIV-1 NL4-3 YU-2 (R5); test: Infection of TZM-bl cells with subinfectious virus doses (Gal Screen); type: cell-based; details: 2 μg/ml SEVI or more, 0.1 and 0.6 pg p24 of X4 and R5 tropic HIV, 3 days
[11] = system: TZM-bl cells; test: MTT cytotoxicity assay; type: cell-based; details: 3 days, high concentrations of SEVI
Protocol: The day after medium was replaced by 90 μl of fresh medium and SEVI [fibrilar […]] dilutions were added to a final volume of 100 μl. After 3 days 10 μl of a 5 mg/ml MTT (Sigma; # M2128) solution was added and cells were incubated for 4 h at 37° C. In living cells mitochondrial dehydrogenases […] the yellow MTT salt to blue formazan crystals (Schiff et al.; 1985). After dissolving the crystals in 1:1 Ethanol/DMSO, samples containing living cells appear blue whereas samples from dead cells are clear. Optical density (OD) was measured at 560/650 nm using a photometer (Molecular Devices).
FIG. 9. SEVI has no effect in cell viability or endogenous LTR activity. […] After 3 days 10 μl of a 5 mg/ml MTT solution was added and cells were incubated for 4 h at 37° C. Thereafter formazan crystals were dissolved in 1:1 Ethanol/DMSO and OD was measured at 560/650 nm. […] B) Endogenous LTR activity: After 3 days incubation with peptides endogenous LTR activity was measured using the Gal Screen Kit. Shown are median β-galactosidase activities±SD derived from 6 samples. RLU/s: relative light units per second.

[12] = system: NL4-3 V3 recombinant viruses and molecular HIV-1 clones; details: for infection more efficient than control cells without peptide: 0.4 μg/ml SEVI

GIHKQKEKSRLQGGVLVNEILNHMKRATQIPSYKKLIMY (Synthetic fragment of the PAP protein) [PAP(248-286)]
effect on SIVagm infection [1]: favoured
viral infectivity enhanced in relation to the final peptide concentration in the infected culture ([2]; 5 min preincubation with virus stock): 50 fold
effect of diluting the HIV-1/SEVI mixture after preincubation ([2]; 5 min preincubation): did not at all reduce the magnitude of SEVI-mediated infectivity enhancement
binding of HIV-1 particles lacking Env [3]: enhanced binding of HIV-1 particles lacking Env
increase of binding of HIV-1 to the target cells (cell-associated p24) ([3]; wildtype HIV-1, dose-dependent): up to 8 fold
effect on NL4-3 infection [4]: dose dependently promoted NL4-3 infection
virus replication (p24 antigen ELISA) ([5]; PBMC infected with 1.2 and 0.12 pg): virus only replicated in samples containing SEVI
virus replication (p24 antigen ELISA) ([5]; PBMC infected with 120 and 12 pg p24 antigen): replicated with faster kinetics and to higher levels than in control cells without peptide
luciferase activities increased compared to control cells containing no SEVI [6]: about 30 fold
effect on HIV-1 infection (luciferase activities relative to no peptide) [6]: dose dependently enhanced HIV-1 infection
effect on SIVcpz infection [7]: favoured
effect on SIVmac infection [8]: favoured
increase of viral infection ([9]; 50 μg/ml SEVI, TZM-bl infected with 2 μl of HIV-2): two orders of magnitude
effect on infection rates of HIV-2 ([9]; TZM-bl): dose dependently enhanced infection rates

QKEKSRLQGGVLVNEILNHMKRATQIPSYKKLIMY (Synthetic fragment of the PAP protein) [PAP(252-286)]
luciferase activities increased compared to control cells containing no SEVI [6]: about 30 fold
effect on HIV-1 infection (luciferase activities relative to no peptide) [6]: dose dependently enhanced HIV-1 infection

KQKEKSRLQGGVLVNEILNHMKRATQIPSYKKLIMY (Synthetic fragment of the PAP protein) [PAP(251-286)]
effect on NL4-3 infection [4]: dose dependently promoted NL4-3 infection
detection of infection (β-galactosidase activities) [10]: readily detectable
luciferase activities increased compared to control cells containing no SEVI [6]: about 30 fold
effect on HIV-1 infection (luciferase activities relative to no peptide) [6]: dose dependently enhanced HIV-1 infection

HKQKEKSRLQGGVLVNEILNHMKRATQIPSYKKLIMY [PAP(250-286)]
cell viability (MTT) [11]: not affected

KEKSRLQGGVLVNEILNHMKRATQIPSYKKLIMY (Synthetic fragment of the PAP protein) [PAP(253-286)]
infection more efficient than control cells without peptide ([12]; 93br025-9): 1.9 fold
infection more efficient than control cells without peptide ([12]; HIV-1 LAI): 2.7 fold
maximum infectivity compared to infected controls without peptide ([12]; higher concentrations, P51-S): 3,045%
effect on NL4-3 infection [4]: dose dependently promoted NL4-3 infection
luciferase activities increased compared to control cells containing no SEVI [6]: about 30 fold
effect on HIV-1 infection (luciferase activities relative to no peptide) [6]: dose dependently enhanced HIV-1 infection
